Reference: patent EP3714904B1, “IMINODIACETIC ACID SUBSTITUTED CYCLODEXTRINS AS POTENTIATORS OF BETA-LACTAM ANTIBIOTICS” (NATIONAL CENTER FOR SCIENTIFIC RESEARCH "DEMOKRITOS" (NCSRD), priority 2019, dated 2020)
Read-outs that look alike come from different tables or passages of the source.

Experiments:
[1] = test system: NDM-1 producing K. pneumoniae strain LA26; assay: Murine sepsis model: single dose treatment scheme-2; format: in vivo, CD-1 mice; conditions: meropenem monotherapy, single dose 10 mg/kg; within 48 h
Description: Example 9. […] Blood samples were collected at 0, 6 and 24 hours after injection of a single dose of antibiotic (4 infected animals for each timepoint), were serially diluted in normal saline (10^-1 to 10^-9) and plated on MH agar plates which were incubated for 16 hours at 37°C for determination of viable organisms. […] The resulting 3.0log10 reduction in the blood bacterial load in the presence of 120 mg/kg of the inhibitor β-IDACYD compared to the antibiotic itself confirmed the high repotentiation abilities of the inhibitor to carbapenems even for suboptimal antibiotic doses. […] Treatment was given in a form of a single shot 2h after infection and blood was drawn 0h, 6h and 24h post treatment initiation. All groups were of n=10. Error bars are indicative of SEM (n=2 replicates).

[2] = target: T1, MBL containing crude enzyme preparation (Kpn LA-26 NDM-1) (Klebsiella pneumoniae, UniProt C7C422); assay: 1H NMR monitoring of meropenem hydrolysis by MBL crude enzyme preparation; format: biochemical; conditions: meropenem 0.18 mM, absence of β-IDACYD, 6 h incubation
T1 construct: an MBL containing crude enzyme preparation (Kpn LA-26 NDM-1, 485 µL); endogenous in cells; host or cells: Klebsiella pneumoniae clinical strain LA-26 (crude enzyme preparation)

[3] = test system: NDM producing K. pneumoniae clinical strain LA26; assay: Murine sepsis model: 2-hour intervals treatment scheme; format: in vivo, CD-1 mice; conditions: meropenem monotherapy 30 mg/kg every 2 h for 24 h, intraperitoneal; 140 hours
Description: Example 7. […] The animals were rendered neutropenic (<100 neutrophils/mm^3) by intraperitoneal injection of 150 and 100 mg/kg of cyclophosphamide at day -4 and day -1, respectively, before infection. […] The meropenem/ β-IDACYD combination was administrated in all dosing schemes simultaneously. […] Blood samples were taken 0, 6, 24 hours and 7 days after injection of a single dose of antibiotic (five infected animals for each timepoint) were serially diluted in normal saline (10^-1 to 10^-9) and plated on MH agar plates which were incubated for 16 hours at 37°C for determination of viable organisms. All mice that were alive were euthanised 7 days post infection and spleen and liver were harvested. The organs were placed into 1 mL of normal saline on ice and then homogenised. The organ homogenates were then serially diluted in normal saline (10^-1 to 10^-9) and plated on MH agar for CFU enumeration. Without therapy 90% of mice succumbed to the infection within 24 hours. […] Finally, the bacterial load in the spleen was relieved by 4.2 log10 compared to that of the antibiotic itself. In Fig.6 is shown the bacterial load (CFU/mL) (A) and survival percentage (B) of CD-1 mice infected with a lethal dose (10^7 CFU) of NDM-1 producing K. pneumoniae strain LA26. […] Treatment (initiated at 2 hours post infection) was given every 2h for a 24h period and blood was drawn 0 h, 6 h, 24 h and 140 h post treatment initiation. All groups were of n=10. Spleen and liver (C) from n=5 mice were also removed at 140 h post-treatment initiation the bacterial load [log (CFU/organ)] was determined. Error bars are indicative of SEM (n=2 replicates).

Klebsiella pneumoniae = assay: MIC of β-lactams alone or with 50 µM IDACYD against clinical isolates; format: cell-based; conditions: Klebsiella pneumoniae, alone
Description: Further the in-vitro inhibitory activity of IDACYDs was tested against highly resistant pathogens. […] Table 2: Collection of clinical isolates used for in-vitro evaluation

[4] = test system: NDM-1 producing K. pneumoniae clinical strain LA 26; assay: Murine sepsis model: single dose treatment scheme-1; format: in vivo, CD-1 mice; conditions: meropenem monotherapy, single dose 30 mg/kg; 70 hours post infection
Description: Example 8. In-vivo murine sepsis model: Single dose treatment scheme-1: Neutropenic 7-8 weeks old CD-1 female mice weighing 29 to 32 grams were infected interperitoneally with a lethal dose (10^7 CFU) of the NDM-1 producing K. pneumoniae clinical strain LA 26 as described previously. […] The meropenem/ β-IDACYD combination was administrated in all dosing schemes simultaneously. Blood samples were taken 0, 6, 24 hours and 3 days after injection of a single dose of antibiotic (five infected animals for each timepoint) and were serially diluted in normal saline (10^-1 to 10^-9) and plated on MH agar plates which were incubated for 16 hours at 37 °C for determination of viable organisms. All mice were euthanised 3 days post infection and spleen and liver were harvested. Organs were placed into 1 mL of normal saline on ice and then homogenised. Organ homogenates were then serially diluted in normal saline (10^-1 to 10^-9) and plated on MH agar plates for CFU enumeration. In the absence of therapy 30% of mice remained alive 70 hours post infection. […] The bacterial burden in the blood 70 hours post treatment was relieved by 4.8log10 in the presence of 120 mg/kg of β-IDACYD compared to that of the antibiotic monotherapy. […] In Fig. 7 is shown the bacterial load (CFU/mL) and survival percentage of CD-1 mice infected with a lethal dose (10^7 CFU) of NDM-1 producing K. pneumoniae strain LA26. […] Treatment was given in a form of a single shot 2h after infection and blood was drawn 0h, 6h, 24h and 70h post treatment initiation. All groups were of n=10. Error bars are indicative of SEM (n=2 replicates).

T1 sequence (C7C422 29-270 limits assumed): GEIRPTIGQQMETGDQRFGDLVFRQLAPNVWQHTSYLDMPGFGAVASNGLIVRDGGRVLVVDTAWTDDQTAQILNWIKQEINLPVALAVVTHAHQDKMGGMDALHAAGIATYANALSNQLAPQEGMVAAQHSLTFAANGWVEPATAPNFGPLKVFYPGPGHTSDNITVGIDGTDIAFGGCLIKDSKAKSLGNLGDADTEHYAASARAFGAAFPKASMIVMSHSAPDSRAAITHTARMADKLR

C[C@@H](O)[C@H]1C(=O)N2C(C(=O)O)=C(S[C@@H]3CN[C@H](C(=O)N(C)C)C3)[C@H](C)[C@H]12 [Meropenem, reference compound]
64 µg/mL: MIC (Klebsiella pneumoniae; read-out: Meropenem MIC, Kpn LA 82/16 (VIM-1)) | MIC (Klebsiella pneumoniae; read-out: Meropenem MIC, isolate ESDY-1780 (VIM, KPC)) | MIC (Klebsiella pneumoniae; read-out: Meropenem MIC, isolate L078/11 (KPC)) | MIC (Klebsiella pneumoniae; read-out: Meropenem MIC, isolate LA-28 (NDM, CTXM)) | MIC (Klebsiella pneumoniae; read-out: Meropenem MIC, isolate LA-34 (VIM, CMY), second entry of Table 3) | MIC (Klebsiella pneumoniae; read-out: Meropenem MIC, isolate LA-82/16 (VIM, SHV)) | MIC (Klebsiella pneumoniae; read-out: Meropenem MIC, isolate LAR-26I/15 (NDM, VIM, CTXM)) | MIC (Klebsiella pneumoniae; read-out: Meropenem MIC, isolate LAR-40II/15 (KPC)) | MIC (Klebsiella pneumoniae; read-out: Meropenem MIC, isolate SEC-2 (VIM)) | MIC (Klebsiella pneumoniae; read-out: Meropenem MIC, isolate UoA 12/227 (VIM)) | MIC (Klebsiella pneumoniae; read-out: Meropenem MIC, isolate UoA 1995 (VIM))
80%: mice protected (survival) [3]
32 µg/mL: MIC (Klebsiella pneumoniae; read-out: Meropenem MIC, Kpn ESDY 5742 (IMP-1)) | MIC (Klebsiella pneumoniae; read-out: Meropenem MIC, Kpn LA 26 (NDM-1)) | MIC (Klebsiella pneumoniae; read-out: Meropenem MIC, isolate IT-17829 (CTXM, SHV)) | MIC (Klebsiella pneumoniae; read-out: Meropenem MIC, isolate LA-26 (NDM)) | MIC (Klebsiella pneumoniae; read-out: Meropenem MIC, isolate SEC-4 (VIM))
256 µg/mL: MIC (Klebsiella pneumoniae; read-out: Meropenem MIC, Kpn LA 34 (VIM-1 CMY)) | MIC (Klebsiella pneumoniae; read-out: Meropenem MIC, Kpn LA 109/16 (VIM-1)) | MIC (Klebsiella pneumoniae; read-out: Meropenem MIC, isolate LA-34 (VIM, CMY), first entry of Table 3)
0.5 µg/mL: MIC (Klebsiella pneumoniae; read-out: Meropenem MIC, isolate TZAN-59 (β-lactamase: None))
16 µg/mL: MIC (Klebsiella pneumoniae; read-out: Meropenem MIC, Kpn LA419/16 (NDM-1)) | MIC (Klebsiella pneumoniae; read-out: Meropenem MIC, isolate ESDY-5742 (IMP)) | MIC (Klebsiella pneumoniae; read-out: Meropenem MIC, isolate LA-419/16 (NDM,CTXM)) | MIC (Klebsiella pneumoniae; read-out: Meropenem MIC, isolate LAR-38I/15 (VIM, NDM, CTXM))
8 µg/mL: MIC (Klebsiella pneumoniae; read-out: Meropenem MIC, isolate ALX-47 (OXA-48,CTX-M)) | MIC (Klebsiella pneumoniae; read-out: Meropenem MIC, isolate EY-20S (CMY, SHV)) | MIC (Klebsiella pneumoniae; read-out: Meropenem MIC, isolate LA-27 (NDM, CTXM)) | MIC (Klebsiella pneumoniae; read-out: Meropenem MIC, isolate LAR-2873 (VIM-12))
30%: survival [4]
~100%: drug hydrolyzed [2]
unable to protect any mice from death: protection from death [1]
